Reference: patent US20040029865A1, “Bis-arylsulfones” (priority 2002, published 2004)

Legend:
Assay type in all cases: physicochemical
[1] = Two-week solid-state stability at stressed conditions (high RH / high temperature), assessed by Powder-XRD; conditions: for Stability at high Temp (70° C.) / Stability at high RH (88%): two weeks, Powder-XRD; for Stability at high RH (88%): 88% RH; for physical stability at stressed conditions (high temperature and/or high humidity) relative to other salts: comparison with other salts
Description: X-ray Diffraction (XRD) Analysis: A Scintag X-2 theta/theta scanning diffractometer (Scintag Inc., Cupertino Calif.) was employed for the XRD data acquisition for this study. […] Major instrumental parameters are set as follows: 45 KV voltage, 40 mA current, divergent slit width of 2 mm, detector scatter slit width of 0.5 mm and receiving slit width of 0.3 mm. Each XRD pattern was scanned over the spectral range of 2-40° two-theta angle with a step scan algorithm with a step size of 0.03° two-theta angle/step. The raw XRD data, exported in ASCII format, is then converted to the binary format with Galactic's Grams software (Galactic Industries Corp., Salem N.H.) for data analysis, storage and output.

[2] = Dynamic moisture sorption gravimetry (DMSG); conditions: for Δ-Wt (%) DMSG: 0-90% RH: moisture sorption weight change; for moisture absorption (Δ-Wt(%) DMSG) relative to other salts: comparison with other salts
Description: Dynamic moisture sorption gravimetry (DMSG): DMSG isotherms were collected on the variable temperature controlled atmospheric microbalance, CAM. Approximately 10 mg samples were used in the balance, samples were run as received. The humidity was set at ambient conditions on the day analysis began. After the first scan with fast scan rate from ambient RH to 0% RH; the DMSG analysis followed with three more scans: 0% RH to 90% RH, 90% RH to 0% RH, 0% RH to 90% RH. The scan rate was 3% RH/step. The mass was measured every two minutes and an equilibrium window of 5 points within 0.001 mg. The RH was changed to the next value (+/−3% RH) when the mass of the sample was stable to within 1.0 μg. The Visual Basic program dmsgscn2.exe was used to control the data collection and export the information to an Excel spreadsheet.

[3] = Conversion of crystal form II to form I upon stirring in aqueous or hot-ethanol
From the text: See results in Table 2 below.

Compound	Stability at high Temp (70° C.) [1]	Stability at high RH (88%) [1]	Δ-Wt (%) DMSG: 0-90% RH [2]	physical stability at stressed conditions (high temperature and/or high humidity) relative to other salts [1]	moisture absorption (Δ-Wt(%) DMSG) relative to other salts [2]	other results
CC(=O)Nc1cc(N2CCCNCC2)ccc1S(=O)(=O)c1cccc(F)c1.CS(=O)(=O)O [Example 1, N-{5-(1,4-diazepan-1-yl)-2-[(3-fluorophenyl)sulfonyl]phenyl}acetamide Methanesulfonate]	Stable	Deliquesced	Deliquesced	–	–	–
CC(=O)Nc1cc(N2CCCNCC2)ccc1S(=O)(=O)c1cccc(F)c1.Cl [Example 2, N-{5-(1,4-diazepan-1-yl)-2-[(3-fluorophenyl)sulfonyl]phenyl}acetamide Hydrochloride]	Stable	Stable	0.8%	better physical stability	lower moisture absorption	–
CC(=O)Nc1cc(N2CCCNCC2)ccc1S(=O)(=O)c1cccc(F)c1.O=C(O)C(F)(F)F [Example 3, N-{5-(1,4-diazepan-1-yl)-2-[(3-fluorophenyl)sulfonyl]phenyl}acetamide Trifluoroacetate]	Stable	Stable	0.8%	better physical stability	lower moisture absorption	–
CC(=O)Nc1cc(N2CCCNCC2)ccc1S(=O)(=O)c1cccc(F)c1.O=C(O)/C=C\C(=O)O [Example 5 (Form II), N-{5-(1,4-diazepan-1-yl)-2-[(3-fluorophenyl)sulfonyl]phenyl}acetamide maleate]	–	–	–	–	–	Stability at high Temp (70° C.) ([1]; listed as form II, maleate): excellent physical stability; Stability at high Temp (70° C.) ([1]; maleate): Stable; Stability at high RH (88%) ([1]; listed as form II, maleate): excellent physical stability; Stability at high RH (88%) ([1]; maleate): Stable; Δ-Wt (%) DMSG: 0-90% RH ([2]; maleate): 0.3%
N-{5-(1,4-diazepan-1-yl)-2-[(3-fluorophenyl)sulfonyl]phenyl}acetamide Hemi-succinate [Example 7]	Unstable**	Unstable**	5.0%	–	–	–
CC(=O)Nc1cc(N2CCCNCC2)ccc1S(=O)(=O)c1cccc(F)c1.O=C(O)CC(O)(CC(=O)O)C(=O)O [Example 6, N-{5-(1,4-diazepan-1-yl)-2-[(3-fluorophenyl)sulfonyl]phenyl}acetamide Hemi-citrate]	Stable	Unstable***	2.5%	–	–	–
CC(=O)Nc1cc(N2CCCNCC2)ccc1S(=O)(=O)c1cccc(F)c1.O=C(O)/C=C\C(=O)O [Example 4, N-{5-(1,4-diazepan-1-yl)-2-[(3-fluorophenyl)sulfonyl]phenyl}acetamide Maleate, Crystal Form I]	Stable	Stable	0.7%	–	–	thermodynamic preference between crystal forms [3]: thermodynamically favored relative to form II; Stability at high Temp (70° C.) ([1]; listed as form I): excellent physical stability; Stability at high RH (88%) ([1]; listed as form I): excellent physical stability
N-{5-(1,4-diazepan-1-yl)-2-[(3-fluorophenyl)sulfonyl]phenyl}acetamide Hemi-malate [Example 10]	Unstable**	Stable	1.5%	–	–	–

Second part, led by results:

Stability at high Temp (70° C.) [1]	Stability at high RH (88%) [1]	Δ-Wt (%) DMSG: 0-90% RH [2]	physical stability at stressed conditions (high temperature and/or high humidity) relative to other salts [1]	moisture absorption (Δ-Wt(%) DMSG) relative to other salts [2]	Compound	other results
Stable	Stable	1.9%	better physical stability	lower moisture absorption	CC(=O)Nc1cc(N2CCCNCC2)ccc1S(=O)(=O)c1cccc(F)c1.Cc1ccc(S(=O)(=O)O)cc1 [Example 8, N-{5-(1,4-diazepan-1-yl)-2-[(3-fluorophenyl)sulfonyl]phenyl}acetamide Tosylate]	–
Stable	Unstable**	3.0%	–	–	CC(=O)Nc1cc(N2CCCNCC2)ccc1S(=O)(=O)c1cccc(F)c1.O=C(O)/C=C/C(=O)O [Example 9, N-{5-(1,4-diazepan-1-yl)-2-[(3-fluorophenyl)sulfonyl]phenyl}acetamide Hemi-fumarate]	–
Stable	Unstable**	–	–	–	CC(=O)Nc1cc(N2CCCNCC2)ccc1S(=O)(=O)c1cccc(F)c1 [Example 11, N-{5-(1,4-diazepan-1-yl)-2-[(3-fluorophenyl)sulfonyl]phenyl}acetamide Hemi-tartrate]	–
–	–	–	better physical stability	lower moisture absorption	CC(=O)Nc1cc(N2CCCNCC2)ccc1S(=O)(=O)c1cccc(F)c1.O=C(O)/C=C\C(=O)O [maleate, N-{5-(1,4-diazepan-1-yl)-2-[(3-fluorophenyl)sulfonyl]phenyl}acetamide maleate]	–
